In ChEMBL document CHEMBL5375986, “Discovery of Lead 2-Thiazolylhydrazones with Broad-Spectrum and Potent Antifungal Activity” (J Med Chem, 2023):
Converted amounts (≈) assume the structure as drawn.

How the values were obtained:
[1] = Antifungal activity against Cryptococcus gattii ATCC 24065 assessed as inhibition of fungal growth incubated for 24 to 48 hrs by CLSI protocol based broth microdilution method; assay type: functional, Cryptococcus gattii VGI; conditions: time 24-48 hrs
[2] = test system: Candida parapsilosis; experiment: Antifungal activity against Candida parapsilosis ATCC 22019 assessed as inhibition of fungal growth incubated for 24 to 48 hrs by CLSI protocol based broth microdilution method; assay type: functional; conditions: Lodderomyces parapsilosis, time 24-48 hrs
[3] = test system: Cryptococcus neoformans; experiment: Antifungal activity against Cryptococcus neoformans ATCC 24067 assessed as inhibition of fungal growth incubated for 24 to 48 hrs by CLSI based broth microdilution method; assay type: functional; conditions: time 24-48 hrs
[4] = test system: [Candida] auris; experiment: Antifungal activity against Candida auris COLO 01 assessed as inhibition of fungal growth incubated for 24 to 48 hrs by CLSI protocol based broth microdilution method; assay type: functional; conditions: Candidozyma auris, time 24-48 hrs
[5] = test system: Candida albicans; experiment: Antifungal activity against Candida albicans SC5314 assessed as inhibition of fungal growth incubated for 24 to 48 hrs by CLSI protocol based broth microdilution method; assay type: functional; conditions: time 24-48 hrs
[6] = test system: Nakaseomyces glabratus; experiment: Antifungal activity against Candida glabrata ATCC 2001 assessed as inhibition of fungal growth incubated for 24 to 48 hrs by CLSI protocol based broth microdilution method; assay type: functional; conditions: time 24-48 hrs
[7] = test system: Candida tropicalis; experiment: Antifungal activity against Candida tropicalis ATCC 750 assessed as inhibition of fungal growth incubated for 24 to 48 hrs by CLSI protocol based broth microdilution method; assay type: functional; conditions: time 24-48 hrs
[8] = test system: Pichia kudriavzevii; experiment: Antifungal activity against Candida krusei ATCC 20298 assessed as inhibition of fungal growth incubated for 24 to 48 hrs by CLSI protocol based broth microdilution method; assay type: functional; conditions: time 24-48 hrs

Row | SMILES | MIC [1] | MIC [2] | MIC [3] | MIC [4] | MIC [5] | MIC [6] | MIC [7] | MIC [8]
1 | C[C@@H]1[C@H](O)[C@@H](C)/C=C/C=C/C=C/C=C/C=C/C=C/C=C/[C@H](O[C@@H]2O[C@H](C)[C@@H](O)[C@H](N)[C@@H]2O)C[C@@H]2O[C@](O)(C[C@@H](O)C[C@@H](O)[C@H](O)CC[C@@H](O)C[C@@H](O)CC(=O)O[C@H]1C)C[C@H](O)[C@H]2C(=O)O [AMPHOTERICIN B] | 1.1 µM (≈ 1.02 µg/mL) | 2.2 µM (≈ 2.03 µg/mL) | 0.5 µM (≈ 0.462 µg/mL) | 4.3 µM (≈ 3.97 µg/mL) | 2.2 µM (≈ 2.03 µg/mL) | 1.1 µM (≈ 1.02 µg/mL) | 0.5 µM (≈ 0.462 µg/mL) | 4.3 µM (≈ 3.97 µg/mL)
2 | COc1ccc(-c2csc(N/N=C(\C)CCC(=O)O)n2)cc1 | 0.2 µM (≈ 0.0639 µg/mL) | 3 µM (≈ 0.958 µg/mL) | 0.8 µM (≈ 0.256 µg/mL) | 1.5 µM (≈ 0.479 µg/mL) | 3 µM (≈ 0.958 µg/mL) | 48.9 µM (≈ 15.6 µg/mL) | 6.1 µM (≈ 1.95 µg/mL) | 1.5 µM (≈ 0.479 µg/mL)
3 | CCOC(=O)/C(C)=N/Nc1nc(-c2ccc(OC)cc2)cs1 | > 125 µM | > 125 µM | > 125 µM | > 125 µM | > 125 µM | > 125 µM | > 125 µM | > 125 µM
4 | C/C(CCC(=O)O)=N\Nc1nc(-c2ccc(C)cc2)cs1 | 0.3 µM (≈ 0.091 µg/mL) |  | 0.7 µM (≈ 0.212 µg/mL) | 3.2 µM (≈ 0.971 µg/mL) | 6.4 µM (≈ 1.94 µg/mL) |  | 51.4 µM (≈ 15.6 µg/mL) | 6.4 µM (≈ 1.94 µg/mL)
5 | CCOC(=O)C(C)=NNc1nc(-c2ccc(F)cc2)cs1 | > 125 µM | > 125 µM | > 125 µM | 50.8 µM (≈ 15.6 µg/mL) | > 125 µM | > 125 µM | > 125 µM | 102 µM (≈ 31.3 µg/mL)
6 | C/C(=N\Nc1nc(-c2ccc(Cl)cc2)cs1)C(=O)O | 5.4 µM (≈ 1.6 µg/mL) |  | 5.4 µM (≈ 1.6 µg/mL) | 6.6 µM (≈ 1.95 µg/mL) | 26.4 µM (≈ 7.81 µg/mL) |  | 106 µM (≈ 31.3 µg/mL) | 26.4 µM (≈ 7.81 µg/mL)
7 | C/C(=N\Nc1nc(-c2ccc(Br)cc2)cs1)C(=O)O | 2.4 µM (≈ 0.816 µg/mL) |  | 2.4 µM (≈ 0.816 µg/mL) | 23 µM (≈ 7.82 µg/mL) | 23 µM (≈ 7.82 µg/mL) |  | 91.9 µM (≈ 31.3 µg/mL) | 23 µM (≈ 7.82 µg/mL)
8 | C/C(=N\Nc1nc(-c2ccc(C)cc2)cs1)C(=O)O |  |  |  | 14.2 µM (≈ 3.91 µg/mL) | 14.2 µM (≈ 3.91 µg/mL) |  | 114 µM (≈ 31.3 µg/mL) | 28.4 µM (≈ 7.82 µg/mL)
9 | C/C(CCC(=O)O)=N\Nc1nc(-c2ccc(C#N)cc2)cs1 | 1.5 µM (≈ 0.472 µg/mL) | 6.2 µM (≈ 1.95 µg/mL) | 1.5 µM (≈ 0.472 µg/mL) | 0.8 µM (≈ 0.251 µg/mL) | 3.1 µM (≈ 0.975 µg/mL) | 49.7 µM (≈ 15.6 µg/mL) | 24.8 µM (≈ 7.8 µg/mL) | 1.5 µM (≈ 0.472 µg/mL)
10 | CC[C@H](C)C[C@H](C)CCCCCCCCC(=O)N[C@H]1C[C@@H](O)[C@@H](NCCN)NC(=O)[C@@H]2[C@@H](O)CCN2C(=O)[C@H]([C@H](O)CCN)NC(=O)[C@H]([C@H](O)[C@@H](O)c2ccc(O)cc2)NC(=O)[C@@H]2C[C@@H](O)CN2C(=O)[C@H]([C@@H](C)O)NC1=O [CASPOFUNGIN] |  |  |  | 0.1 µM (≈ 0.109 µg/mL) |  |  |  | 
11 | OC(Cn1cncn1)(Cn1cncn1)c1ccc(F)cc1F [FLUCONAZOLE] | 52.2 µM (≈ 16 µg/mL) | 3.3 µM (≈ 1.01 µg/mL) |  |  | 1.6 µM (≈ 0.49 µg/mL) | 13.1 µM (≈ 4.01 µg/mL) | 0.8 µM (≈ 0.245 µg/mL) | 104 µM (≈ 32 µg/mL)
12 | CCOC(=O)/C(C)=N/Nc1nc(-c2ccc(Cl)cc2)cs1 | > 125 µM | > 125 µM | > 125 µM | > 125 µM | > 125 µM | > 125 µM | > 125 µM | > 125 µM
13 | C/C(CCC(=O)O)=N\Nc1nc(-c2ccccc2)cs1 | 6.7 µM (≈ 1.94 µg/mL) | 13.5 µM (≈ 3.91 µg/mL) | 6.7 µM (≈ 1.94 µg/mL) | 3.4 µM (≈ 0.984 µg/mL) | 3.4 µM (≈ 0.984 µg/mL) | 1.7 µM (≈ 0.492 µg/mL) | 3.4 µM (≈ 0.984 µg/mL) | 13.5 µM (≈ 3.91 µg/mL)
14 | CCOC(=O)/C(C)=N/Nc1nc(-c2ccc(C#N)cc2)cs1 | 24.8 µM (≈ 7.8 µg/mL) | 24.8 µM (≈ 7.8 µg/mL) | 49.7 µM (≈ 15.6 µg/mL) | 24.8 µM (≈ 7.8 µg/mL) | 49.7 µM (≈ 15.6 µg/mL) |  | > 125 µM | 99.4 µM (≈ 31.2 µg/mL)
15 | CCOC(=O)Cc1csc(NN=C(C)CCO)n1 | > 125 µM | 115 µM (≈ 31.3 µg/mL) | > 125 µM | 115 µM (≈ 31.3 µg/mL) | 115 µM (≈ 31.3 µg/mL) | 7.2 µM (≈ 1.95 µg/mL) | 57.6 µM (≈ 15.6 µg/mL) | 3.6 µM (≈ 0.977 µg/mL)
16 | C/C(=N\Nc1nc(-c2ccc(F)cc2)cs1)C(=O)O | 5.7 µM (≈ 1.59 µg/mL) |  | 11.1 µM (≈ 3.1 µg/mL) | 7 µM (≈ 1.96 µg/mL) | 28 µM (≈ 7.82 µg/mL) |  | 112 µM (≈ 31.3 µg/mL) | 28 µM (≈ 7.82 µg/mL)
17 | CCN1CCCC(/C=N/Nc2nc(-c3ccc(Br)cc3)cs2)C1 (stereo unspecified) | 72.9 µM (≈ 28.7 µg/mL) | 19.9 µM (≈ 7.83 µg/mL) | 72.9 µM (≈ 28.7 µg/mL) | 19.9 µM (≈ 7.83 µg/mL) | 39.8 µM (≈ 15.7 µg/mL) | > 125 µM | 79.7 µM (≈ 31.4 µg/mL) | 2.5 µM (≈ 0.983 µg/mL)
18 | CCOC(=O)/C(C)=N/Nc1nc(-c2ccc(Br)cc2)cs1 | 84.9 µM (≈ 31.3 µg/mL) | 84.9 µM (≈ 31.3 µg/mL) | 84.9 µM (≈ 31.3 µg/mL) | 21.2 µM (≈ 7.81 µg/mL) | 84.9 µM (≈ 31.3 µg/mL) | 21.2 µM (≈ 7.81 µg/mL) | 21.2 µM (≈ 7.81 µg/mL) | 10.6 µM (≈ 3.9 µg/mL)
19 | C/C(=N\Nc1nc(-c2ccc(C#N)cc2)cs1)C(=O)O | 175 µM (≈ 50 µg/mL) |  | 22 µM (≈ 6.3 µg/mL) | 13.7 µM (≈ 3.92 µg/mL) | 109 µM (≈ 31.3 µg/mL) |  | > 125 µM | 109 µM (≈ 31.3 µg/mL)
20 | CCOC(=O)c1sc(NN=C2CCOCC2)nc1C | > 125 µM | > 125 µM | > 125 µM | > 125 µM | > 125 µM | > 125 µM | > 125 µM | > 125 µM
21 | CCOC(=O)Cc1csc(NN=C(C)C(=O)OCC)n1 | > 125 µM | 104 µM (≈ 31.3 µg/mL) | > 125 µM | 104 µM (≈ 31.3 µg/mL) | 104 µM (≈ 31.3 µg/mL) | 52.2 µM (≈ 15.6 µg/mL) | 104 µM (≈ 31.3 µg/mL) | 13 µM (≈ 3.89 µg/mL)
22 | C/C(=N\Nc1nc(-c2ccccc2)cs1)C(=O)O |  |  |  | 29.9 µM (≈ 7.81 µg/mL) | 29.9 µM (≈ 7.81 µg/mL) |  | 59.8 µM (≈ 15.6 µg/mL) | 29.9 µM (≈ 7.81 µg/mL)
23 | C/C(CCC(=O)O)=N\Nc1nc(-c2ccc(Br)cc2)cs1 | 1.3 µM (≈ 0.479 µg/mL) | 1.3 µM (≈ 0.479 µg/mL) | 2.6 µM (≈ 0.957 µg/mL) | 0.3 µM (≈ 0.11 µg/mL) | 0.3 µM (≈ 0.11 µg/mL) | 42.4 µM (≈ 15.6 µg/mL) | 2.6 µM (≈ 0.957 µg/mL) | 1.3 µM (≈ 0.479 µg/mL)
24 | CCOC(=O)/C(C)=N/Nc1nc(-c2ccccc2)cs1 | > 125 µM | > 125 µM | > 125 µM | > 125 µM | > 125 µM | > 125 µM | > 125 µM | > 125 µM
25 | CCOC(=O)c1sc(N/N=C\C2CCCCC2)nc1C | > 125 µM | > 125 µM | > 125 µM | > 125 µM | > 125 µM | > 125 µM | > 125 µM | > 125 µM
26 | C/C(CCC(=O)O)=N\Nc1nc(-c2ccc(Cl)cc2)cs1 | 1.5 µM (≈ 0.486 µg/mL) | 6 µM (≈ 1.94 µg/mL) | 3 µM (≈ 0.971 µg/mL) | 0.7 µM (≈ 0.227 µg/mL) | 1.5 µM (≈ 0.486 µg/mL) | 96.5 µM (≈ 31.2 µg/mL) | 6 µM (≈ 1.94 µg/mL) | 1.5 µM (≈ 0.486 µg/mL)
27 | COc1ccc(-c2csc(N/N=C(\C)C(=O)O)n2)cc1 |  |  |  | 13.4 µM (≈ 3.9 µg/mL) | 26.8 µM (≈ 7.81 µg/mL) |  | 56.6 µM (≈ 16.5 µg/mL) | 56.6 µM (≈ 16.5 µg/mL)
28 | CCC(C)n1ncn(-c2ccc(N3CCN(c4ccc(OCC5COC(Cn6cncn6)(c6ccc(Cl)cc6Cl)O5)cc4)CC3)cc2)c1=O (stereo unspecified) [ITRACONAZOLE] | 2.8 µM (≈ 1.98 µg/mL) | 0.4 µM (≈ 0.282 µg/mL) | 1.4 µM (≈ 0.988 µg/mL) | 0.4 µM (≈ 0.282 µg/mL) | 0.7 µM (≈ 0.494 µg/mL) | 0.4 µM (≈ 0.282 µg/mL) | 0.2 µM (≈ 0.141 µg/mL) | 2.8 µM (≈ 1.98 µg/mL)
29 | CCOC(=O)/C(C)=N\Nc1nc(C)c(C(=O)OCC)s1 | > 125 µM | > 125 µM | > 125 µM | > 125 µM | > 125 µM | > 125 µM | 104 µM (≈ 31.3 µg/mL) | > 125 µM
30 | CCOC(=O)Cc1csc(NN=C(C)C(=O)O)n1 | > 125 µM |  | > 125 µM | 57.6 µM (≈ 15.6 µg/mL) | 57.6 µM (≈ 15.6 µg/mL) |  | > 125 µM | 28.8 µM (≈ 7.81 µg/mL)
